Reference: US20120149724A1, “MODULATING ENDOGENOUS BETA-ENDORPHIN LEVELS” (THE GENERAL HOSPITAL CORPORATION, priority 2009, published 2012)
Entries after “also recorded” stand apart in the source; their conditions may differ.

Test system: C57BL/6 male mice
Test: analgesic thresholds (von Frey and hot plate assays) over a tail radiation or mock regimen
Assay type: in vivo
Procedure: Example 4 describes analgesic response changes in response to tail-only radiation exposure. To obtain the data shown in FIGS. 4A and 4B, 8-week old male mice were either exposed to a dose of 5 Gy/day gamma radiation or mock exposed for 6 weeks. Mechanical (FIG. 4A) and thermal (FIG. 4B) analgesic thresholds were measured twice per week over the course of the regimen, and for 2 weeks after the regimen. The threshold testing was performed in the morning before the radiation treatment or mock exposure. The mock exposed mice were either injected with saline 15 minutes before the testing, or with 10 mg/kg naloxone 15 minutes before the testing. The radiation treatment group was divided into 2 subgroups. The first group was given saline injections 15 minutes before the testing. The second group was given a 10 mg/kg naloxone injection 15 minutes before the testing. For all groups of mice, blood was drawn once per week for beta-endorphin measurement. Data for FIG. 4A was obtained from C57BL/6 male mice, and there were 10 mice per treatment group. Data for FIG. 4B was obtained from C57BL/6 male mice, and there were 10 mice per treatment group. An asterisk indicates p<0.05 by t-test. FIGS. 4A and 4B show both mechanical and thermal analgesic thresholds increase over the radiation regimen similarly to plasma beta-endorphin fluctuations (Figure C).
In this assay of mechanical nociceptive threshold, mice were placed on an elevated wire mesh grid, and the plantar surface of the left hind paw was poked with fibers calibrated to different pressures. Mice were each poked 10 times at each pressure at a rate of 1/second, starting with the lowest pressure and stopping at the pressure that elicits a positive response for a given mouse, thus indicating the mechanical nociceptive threshold for that mouse. A positive response was 2/10 responses of paw flinching, fluttering, or licking immediately following the poke. These experiments were performed in mice undergoing daily tail radiation or mock tail radiation as follows.
Prior to the start of the tail radiation regimen, mice were habituated over one week by spending 1 hour/day in individual wire mesh cages on the elevated wire mesh grid. In addition, prior to each measurement, mice spent 30 minutes on the wire mesh grid to habituate before measurements were taken. Two measurements of baseline thresholds were taken on two different days prior to the start of the radiation regimen. During the radiation regimen and for 2 weeks following the end of the regimen, mice were tested twice per week on two different, non-consecutive days. Mice receiving mock treatment and 1 subgroup of mice receiving tail radiation were injected with saline (ip) 15 minutes prior to testing. […]

C=CCN1CC[C@]23c4c5ccc(O)c4O[C@H]2C(=O)CC[C@@]3(O)[C@H]1C5 [naloxone]
sensitivity to mechanical and thermal stimuli (mock-exposed mice, 10 mg/kg, compared to mock-exposed, saline-treated mice): increased sensitivity to mechanical and thermal stimuli | effect on radiation-induced changes in mechanical and thermal analgesic thresholds (tail-irradiated mice 5 Gy/day for 6 weeks, 10 mg/kg 15 minutes before testing, 10 mg/kg): prevented; also recorded: prevents changes in analgesic thresholds | sensitivity to mechanical and thermal stimuli (tail-irradiated mice, 10 mg/kg 15 minutes before testing, as the radiation regimen progressed): increased sensitivity to both mechanical and thermal stimuli | other withdrawal phenotypes (jumping, wet-dog shaking, teeth chattering, diarrhea) (tail-irradiated mice, upon naloxone injection, 10 mg/kg): not observed acutely
